Assay results taken from US20100160369A1, “S1P1 Agonists and Methods of Making And Using” (EXELIXIS, INC., priority 2008, published 2010).
Where a name gives a salt, the structure may show the parent alone.

Experiments:
hS1P1R (hEdg1) = molecular target: T1, hS1P1R (hEdg1) (Homo sapiens, UniProt P21453); assay: hS1P1R GTPγS Binding Assay (Assay 3a); assay type: biochemical
T1 construct: purchased Lonza
Experimental: The hS1P1R GTPγS binding assay was carried out at room temperature in 96 well non-binding surface assay plates. The reaction in each well contained 4 μg hS1P1R (hEdg1) membrane protein (Lonza), 30 μM GDP, 0.1 nM [^35S]GTPγS, 0.25% fatty acid free BSA, and serially diluted hS1P1R agonist compound in 200 μL assay buffer (25 mM Tris-HCl PH 7.9, 100 mM NaCl, 3 mM MgCl2, and 0.2 mM EGTA). After one hour of incubation, 0.9 mg of WGA (Wheat Germ Agglutinin) SPA beads in 50 μL of assay buffer was added to each well. The SPA beads were spun down after an additional one hour incubation. The radioactivity of the bound GTPγS was counted by reading the assay plate using a MicroBeta.
Assay 1 is the CNG cAMP Assay as described in Biological Example 1. Assay 2a and 2b are the Tango™ β-arrestin Recruitment Assay in HEK293 and U2OS cells, respectively, as described in Biological Example 2. Assay 3a is the hS1P1R GTPγS Binding Assay as described in Biological Example 3. Assay 3b is the GTP-Eu Binding Assay as described in Biological Example 3. EC50's were measured unless otherwise noted. […] In the table, “nt” means the Compound was not tested and “no” means the compound was tested but had no measurable activity under the assay conditions employed.

S1P1 [1] = molecular target: T2, S1P1 (Homo sapiens, UniProt P21453); assay: CNG cAMP Assay (Assay 1); assay type: cell-based; set-up: host or cells: HEK293 cells expressing the CNG channel; details: read-out: Assay 1 EC50
Summary of the method: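 HEK293 cells expressing CNG channel and S1P1, membrane-potential dye loaded; compounds (top 10 μM, 10-point 3-fold, 1.8% DMSO) added with 25 μM Ro 20-1724, 500 nM NECA and 10 nM S1P for 90 min. T90/T0 fluorescence (Ex 350/Em 590 nm) normalised to NECA-alone vs DMSO; EC50 fitted.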
Target sequence in this assay (P21453 whole entry): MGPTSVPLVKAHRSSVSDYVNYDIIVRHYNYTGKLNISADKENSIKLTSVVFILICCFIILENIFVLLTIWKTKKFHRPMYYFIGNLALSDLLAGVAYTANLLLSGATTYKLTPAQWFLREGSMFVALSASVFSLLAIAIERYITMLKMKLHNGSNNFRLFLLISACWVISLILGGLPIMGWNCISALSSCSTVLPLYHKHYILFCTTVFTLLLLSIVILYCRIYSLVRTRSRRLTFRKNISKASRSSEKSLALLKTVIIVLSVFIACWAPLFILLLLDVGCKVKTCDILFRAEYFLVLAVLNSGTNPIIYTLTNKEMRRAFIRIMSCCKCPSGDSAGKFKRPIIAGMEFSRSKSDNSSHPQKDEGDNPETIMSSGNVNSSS

S1P1 [2] = molecular target: T2, S1P1; assay: Tango β-arrestin Recruitment Assay in HEK293 cells (Assay 2a); assay type: cell-based; set-up: linker with TEV protease (N1a) cleavage site (C); host or cells: HEK293, transiently transfected; details: Tango β-arrestin Recruitment Assay, read-out: Assay 2a EC50
Summary of the method: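 HEK293 cells transiently expressing S1P1 (TEV-cleavable tTA fusion) with β-arrestin2–TEV; compounds up to 10 μM, 10-point 3-fold, 1% DMSO, 30 min then 16–18 h at 37 °C. Luciferase luminescence normalised to 5 μM S1P as 100% and DMSO as background; EC50 from percent-activity curves.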
Target sequence in this assay (P21453 whole entry): as above
Target sequence in this assay (P32121 whole entry partner): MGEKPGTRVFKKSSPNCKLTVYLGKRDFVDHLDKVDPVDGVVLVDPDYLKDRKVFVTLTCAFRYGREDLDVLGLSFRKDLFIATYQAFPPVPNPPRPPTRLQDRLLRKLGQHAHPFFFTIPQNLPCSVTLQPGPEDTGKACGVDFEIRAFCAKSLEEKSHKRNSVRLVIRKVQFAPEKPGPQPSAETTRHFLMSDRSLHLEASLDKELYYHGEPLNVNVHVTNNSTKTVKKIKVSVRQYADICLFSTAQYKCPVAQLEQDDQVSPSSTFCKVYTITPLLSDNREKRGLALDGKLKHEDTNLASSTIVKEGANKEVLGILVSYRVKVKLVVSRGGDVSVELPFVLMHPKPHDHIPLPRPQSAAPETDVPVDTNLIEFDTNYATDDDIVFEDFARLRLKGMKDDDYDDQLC

S1P1 [3] = molecular target: T2, S1P1; assay: Tango β-arrestin Recruitment Assay in U2OS cells (Assay 2b); assay type: cell-based; set-up: linker with TEV protease (N1a) cleavage site (C); details: Tango β-arrestin Recruitment Assay, read-out: Assay 2b EC50
Summary of the method: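 U2OS cells expressing S1P1 and reporter, serum-starved 48 h, treated with compound (10-point 3-fold series, top 1 μM, 1% DMSO) overnight at 37 °C; β-lactamase substrate added 2 h at room temperature. F460/F530 ratio normalised to 1 μM S1P (100%) and DMSO; EC50 from concentration-response.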
Target sequence in this assay (P21453 whole entry): as the sequence (P21453 whole entry) above
Target sequence in this assay (P32121 whole entry partner): as the sequence (P32121 whole entry partner) above

T1 sequence (P21453 whole entry): as the sequence (P21453 whole entry) above

Row | EC50 (hS1P1R (hEdg1)) [µM] | EC50 (S1P1 [1]) [µM] | EC50 (S1P1 [2]) [µM] | EC50 (S1P1 [3]) [µM] | Structure (SMILES)
1 | 0.5 to 1 | ≤ 0.1 | ≤ 0.1 | – | O=C(O)CCc1c(Cl)cc(-c2noc(-c3cn4cc(C(F)(F)F)cc(Cl)c4n3)n2)cc1Cl [Entry 21]
2 | ≤ 0.1 | – | ≤ 0.1 | ≤ 0.1 | C[C@H](O)COc1cc(Cl)c(-c2noc(-c3cn4cc(C(F)(F)F)cc(Cl)c4n3)n2)cc1Cl [Entry 38]
3 | 0.5 to 1 | ≤ 0.1 | ≤ 0.1 | – | O=C(O)C1CC1c1cc(Cl)c(-c2noc(-c3cn4cc(C(F)(F)F)cc(Br)c4n3)n2)cc1F (stereo not drawn) [Example 89, 2-(4-{5-[8-bromo-6-(trifluoromethyl)imidazo[1,2-a]pyridin-2-yl]-1,2,4-oxadiazol-3-yl}-5-chloro-2-fluorophenyl)cyclopropanecarboxylic acid]
4 | 0.5 to 1 | ≤ 0.1 | ≤ 0.1 | – | OCC(O)COc1ccc(-c2noc(-c3cn4cc(C(F)(F)F)cc(Cl)c4n3)n2)c(Cl)c1 (stereo not drawn) [Example 194, 3-[(3-chloro-4-{5-[8-chloro-6-(trifluoromethyl)imidazo[1,2-a]pyridin-2-yl]-1,2,4-oxadiazol-3-yl}phenyl)oxy]propane-1,2-diol]
5 | ≤ 0.1 | ≤ 0.1 | ≤ 0.1 | – | OCC(O)COc1cc(Cl)c(-c2noc(-c3cn4cc(C(F)(F)F)cc(Cl)c4n3)n2)cc1F (stereo not drawn) [Example 198, 3-[(5-chloro-4-{5-[8-chloro-6-(trifluoromethyl)imidazo[1,2-a]pyridin-2-yl]-1,2,4-oxadiazol-3-yl}-2-fluorophenyl)oxy]propane-1,2-diol]
6 | 0.1 to 0.5 | – | ≤ 0.1 | – | OCC(O)COc1cc(Cl)c(-c2noc(-c3cn4cc(I)cc(Cl)c4n3)n2)cc1Cl (stereo not drawn) [Example 204, 3-({2,5-dichloro-4-[5-(8-chloro-6-iodoimidazo[1,2-a]pyridin-2-yl)-1,2,4-oxadiazol-3-yl]phenyl}oxy)propane-1,2-diol]
7 | ≤ 0.1 | – | ≤ 0.1 | – | OCC(O)COc1c(Cl)cc(-c2noc(-c3cn4cc(C(F)(F)F)cc(Cl)c4n3)n2)cc1Cl (stereo not drawn) [Example 209, 3-[(2,6-dichloro-4-{5-[8-chloro-6-(trifluoromethyl)imidazo[1,2-a]pyridin-2-yl]-1,2,4-oxadiazol-3-yl}phenyl)oxy]propane-1,2-diol]
8 | 0.5 to 1 | – | ≤ 0.1 | – | O=C(O)CCc1cc(Cl)c(-c2nc(-c3cn4cc(I)cc(Cl)c4n3)no2)cc1F [Example 240, 3-{5-chloro-4-[3-(8-chloro-6-iodoimidazo[1,2-a]pyridin-2-yl)-1,2,4-oxadiazol-5-yl]-2-fluorophenyl}propanoic acid]
9 | – | ≤ 0.1 | ≤ 0.1 | ≤ 0.1 | Cc1cc(-c2nnc(-c3cn4cc(C(F)(F)F)cc(Cl)c4n3)s2)cc(C)c1OCC(O)CO (stereo not drawn) [Example 246, 3-[(4-{5-[8-chloro-6-(trifluoromethyl)imidazo[1,2-a]pyridin-2-yl]-1,3,4-thiadiazol-2-yl}-2,6-dimethylphenyl)oxy]propane-1,2-diol]
10 | – | ≤ 0.1 | ≤ 0.1 | 0.1 to 0.5 | OCC(O)COc1cc(Cl)c(-c2nnc(-c3cn4cc(C(F)(F)F)cc(Cl)c4n3)s2)cc1F (stereo not drawn) [Example 247, 3-[(5-chloro-4-{5-[8-chloro-6-(trifluoromethyl)imidazo[1,2-a]pyridin-2-yl]-1,3,4-thiadiazol-2-yl}-2-fluorophenyl)oxy]propane-1,2-diol]
11 | 1 to 5 | – | ≤ 0.1 | – | CC(Cc1cc(Cl)c(-c2nnc(-c3cn4cc(C(F)(F)F)cc(Cl)c4n3)s2)cc1Cl)C(=O)O (stereo not drawn) [Example 285, 3-(2,5-dichloro-4-{5-[8-chloro-6-(trifluoromethyl)imidazo[1,2-a]pyridin-2-yl]-1,3,4-thiadiazol-2-yl}phenyl)-2-methylpropanoic acid]
12 | – | – | ≤ 0.1 | ≤ 0.1 | NC(CO)COc1cc(Cl)c(-c2nnc(-c3cn4cc(C(F)(F)F)cc(Cl)c4n3)s2)cc1F (stereo not drawn) [Example 321, 2-amino-3-[(5-chloro-4-{5-[8-chloro-6-(trifluoromethyl)imidazo[1,2-a]pyridin-2-yl]-1,3,4-thiadiazol-2-yl}-2-fluorophenyl)oxy]propan-1-ol]

The remaining lines, values behind:

Row | Structure (SMILES) | EC50 (hS1P1R (hEdg1)) [µM] | EC50 (S1P1 [1]) [µM] | EC50 (S1P1 [2]) [µM] | EC50 (S1P1 [3]) [µM]
13 | OC[C@H](O)COc1cc(Cl)c(-c2noc(-c3cn4cc(C(F)(F)F)cc(Br)c4n3)n2)cc1Cl [Entry 33] | ≤ 0.1 | – | ≤ 0.1 | ≤ 0.1
14 | O=C(O)CCc1c(Cl)cc(-c2nnc(-c3cn4cc(C(F)(F)F)cc(Cl)c4n3)s2)cc1Cl [Example 206, 3-(2,6-dichloro-4-{5-[8-chloro-6-(trifluoromethyl)imidazo[1,2-a]pyridin-2-yl]-1,3,4-thiadiazol-2-yl}phenyl)propanoic acid] | 1 to 5 | – | ≤ 0.1 | –
15 | O=C(O)CCc1cc(Cl)c(-c2nnc(-c3cn4cc(I)cc(Cl)c4n3)s2)cc1F [Example 207, 3-{5-chloro-4-[5-(8-chloro-6-iodoimidazo[1,2-a]pyridin-2-yl)-1,3,4-thiadiazol-2-yl]-2-fluorophenyl}propanoic acid] | 1 to 5 | – | ≤ 0.1 | –
16 | NC(CO)COc1ccc(-c2noc(-c3cn4cc(C(F)(F)F)cc(Cl)c4n3)n2)c(Cl)c1 (stereo not drawn) [Example 213, 2-amino-3-[(3-chloro-4-{5-[8-chloro-6-(trifluoromethyl)imidazo[1,2-a]pyridin-2-yl]-1,2,4-oxadiazol-3-yl}phenyl)oxy]propan-1-ol] | – | ≤ 0.1 | ≤ 0.1 | ≤ 0.1
17 | O=P(O)(O)OC[C@H](O)COc1cc(Cl)c(-c2noc(-c3cn4cc(C(F)(F)F)cc(Cl)c4n3)n2)cc1Cl [Example 322, (2R)-3-[(2,5-dichloro-4-{5-[8-chloro-6-(trifluoromethyl)imidazo[1,2-a]pyridin-2-yl]-1,2,4-oxadiazol-3-yl}phenyl)oxy]-2-hydroxypropyl dihydrogen phosphate] | – | – | ≤ 0.1 | ≤ 0.1
18 | C[C@H](COc1cc(Cl)c(-c2noc(-c3cn4cc(C(F)(F)F)cc(Br)c4n3)n2)cc1Cl)OP(=O)(O)O [Example 324, (1R)-2-[(4-{5-[8-bromo-6-(trifluoromethyl)imidazo[1,2-a]pyridin-2-yl]-1,2,4-oxadiazol-3-yl}-2,5-dichlorophenyl)oxy]-1-methylethyl dihydrogen phosphate] | – | – | ≤ 0.1 | ≤ 0.1
19 | C[C@@H](COc1cc(Cl)c(-c2noc(-c3cn4cc(C(F)(F)F)cc(Cl)c4n3)n2)cc1Cl)OS(=O)(=O)O [Example 326, (1S)-2-[(2,5-dichloro-4-{5-[8-chloro-6-(trifluoromethyl)imidazo[1,2-a]pyridin-2-yl]-1,2,4-oxadiazol-3-yl}phenyl)oxy]-1-methylethyl hydrogen sulfate] | – | – | ≤ 0.1 | ≤ 0.1
20 | CC(O)(CO)COc1cc(Cl)c(-c2noc(-c3cn4cc(C(F)(F)F)cc(Cl)c4n3)n2)cc1Cl (stereo not drawn) [Example 330, 3-[(2,5-dichloro-4-{5-[8-chloro-6-(trifluoromethyl)imidazo[1,2-a]pyridin-2-yl]-1,2,4-oxadiazol-3-yl}phenyl)oxy]-2-methylpropane-1,2-diol] | – | – | ≤ 0.1 | ≤ 0.1
21 | N[C@H](CO)COc1cc(Cl)c(-c2nnc(-c3cn4cc(C(F)(F)F)cc(Cl)c4n3)s2)cc1F [Example 334, (2R)-2-Amino-3-[(5-chloro-4-{5-[8-chloro-6-(trifluoromethyl)imidazo[1,2-a]pyridin-2-yl]-1,3,4-thiazol-2-yl}-2-fluorophenyl)oxy]propan-1-ol] | – | – | ≤ 0.1 | ≤ 0.1
